Read-outs that look alike come from different tables or passages of the source.
What was measured:
human CB2 = human CB2 (Homo sapiens, UniProt P34972); assay: Cyclic AMP assay (HTRF), CHO cells expressing human CB2; type: cell-based; settings: for Emax: CHO, read-out: CB2 Emax
Method: (§1) Chinese Hamster Ovary cells (CHO) expressing human CB1 or human CB2 (3.3×10^5 cells/ml) were preincubated for 15 min at room temperature with tested agonist and 3-isobutyl-1-methylxanthine (IBMX; 200 μM) in phosphate buffered saline containing 1 mg/ml BSA (assay buffer) followed by 30 min incubation with forskolin in a total volume of 10 μl. The optimal forskolin concentration for each cell line was established in a separate experiment and adjusted to stimulate 70% of maximal cAMP response. cAMP content was measured using an HTRF assay (CisBio) according to the manufacturer's two step protocol.

human CB1 = human CB1 (Homo sapiens, UniProt P21554); assay: Cyclic AMP assay (HTRF), CHO cells expressing human CB1; type: cell-based
Chain of human CB1 (P21554 whole entry): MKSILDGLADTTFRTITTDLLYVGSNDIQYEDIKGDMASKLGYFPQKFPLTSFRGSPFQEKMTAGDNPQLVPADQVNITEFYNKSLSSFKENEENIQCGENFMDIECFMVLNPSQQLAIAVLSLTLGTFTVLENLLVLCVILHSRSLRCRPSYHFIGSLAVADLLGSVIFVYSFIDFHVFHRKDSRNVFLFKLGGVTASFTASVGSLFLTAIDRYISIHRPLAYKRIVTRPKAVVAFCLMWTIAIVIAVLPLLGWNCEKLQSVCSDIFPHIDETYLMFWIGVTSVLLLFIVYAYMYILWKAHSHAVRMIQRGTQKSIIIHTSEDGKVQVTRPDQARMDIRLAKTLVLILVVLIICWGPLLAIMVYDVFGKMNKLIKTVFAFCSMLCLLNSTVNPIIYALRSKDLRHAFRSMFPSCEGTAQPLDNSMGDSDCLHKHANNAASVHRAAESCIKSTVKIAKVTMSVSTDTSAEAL
Method: as §1

[1] = agonist, forskolin-stimulated cAMP in CHO cells expressing human CB2, text calls the value IP, read-out: CB2 cAMP

Chain of human CB2 (P34972 whole entry): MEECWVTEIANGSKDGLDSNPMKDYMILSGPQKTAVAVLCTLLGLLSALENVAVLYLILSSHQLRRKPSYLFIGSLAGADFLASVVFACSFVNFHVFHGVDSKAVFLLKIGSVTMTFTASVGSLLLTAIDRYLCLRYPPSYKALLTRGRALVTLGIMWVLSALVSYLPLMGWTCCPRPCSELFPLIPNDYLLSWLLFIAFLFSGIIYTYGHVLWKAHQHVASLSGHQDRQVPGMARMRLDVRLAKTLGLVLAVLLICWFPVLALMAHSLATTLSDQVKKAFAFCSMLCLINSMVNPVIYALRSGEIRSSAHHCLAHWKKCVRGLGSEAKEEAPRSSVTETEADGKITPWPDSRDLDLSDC

Structure (SMILES) | Emax (human CB2) | EC50 (human CB2; [1]) | EC50 (human CB1) | EC50 (human CB2)
O=C(c1cccc(Cl)c1)c1nc(-c2ccc(F)cc2)n2ccccc12 | 63.7% | 176 nM | > 17000 nM | 
CC(NC(=O)c1nc(Cl)c2ccccn12)c1ccccc1Cl (stereo not drawn) | 83.8% |  | > 17000 nM | 18.4 nM
O=C(NC12CC3CC(CC(C3)C1)C2)c1nc(C(O)c2cccnc2)n2ccccc12 (stereo not drawn) | 80.8% |  | > 17000 nM | 46.2 nM
O=C(NC12CC3CC(CC(C3)C1)C2)c1nc(C2CCCN2)n2ccccc12 (stereo not drawn) | 87.1% |  | 845 nM | 5.93 nM
O=C(Nc1ccccc1Cl)c1nc(CN2CCC(O)C2)c2ccccn12 (stereo not drawn) | 69.9% | 261 nM | > 17000 nM | 
O=C(NCC1CCOCC1)c1nc(-c2cccnc2)n2ccccc12 | 74.7% | 6430 nM | > 17000 nM | 
CC(NC(=O)c1nc(N2CCOCC2)n2ccccc12)C(C)(C)C (stereo not drawn) | 99.5% |  | > 17000 nM | 5.2 nM
O=C(NC1(c2ccccc2)CC1)c1nc(-c2cccc(F)c2)n2ccccc12 | 69.8% |  | 544 nM | 62 nM
O=C(NC12CC3CC(CC(C3)C1)C2)c1nc(Oc2cccc(F)c2)n2ccccc12 | 91.5% |  | 140 nM | 1.92 nM
O=C(c1ccc2ccccc2c1)c1nc(CN2CCOCC2)c2ccccn12 | 76.7% |  | 878 nM | 2.28 nM
O=C(Nc1cccc2cnccc12)c1nc(C(=O)N2CCC(F)CC2)n2ccccc12 | 79.5% |  | 2150 nM | 23.5 nM
O=C(NC(C1CC1)C1CC1)c1nc(-c2ccc(F)cc2)c2ccccn12 | 96.4% |  | 405 nM | 2.01 nM

Source: US20090325936A1, “IMIDAZOPYRIDINE ANALOGS AS CB2 RECEPTOR MODULATORS, USEFUL IN THE TREATMENT OF PAIN, RESPIRATORY AND NON-RESPIRATORY DISEASES” (priority 2006, published 2009)
